≈ marks a conversion by molar mass, not a printed value.
Columns and labels:
[1] = Intrinsic clearance in human liver microsomes; format: ADME, Microsome; conditions: read-out: CLH
[2] = Acid dissociation constant, pKa of the compound; format: physicochemical
physchem [3] = assay: physchem
Description: Kinetic solubility of the compound

[4] = Intrinsic clearance in human hepatocytes assessed per 10^6 cells; format: ADME, cell-based, Hepatocyte; conditions: read-out: CLH
Cytochrome P450 1A2 = molecular target: T1, Cytochrome P450 1A2 (Homo sapiens, UniProt P05177)
T1 sequence (P05177 whole entry): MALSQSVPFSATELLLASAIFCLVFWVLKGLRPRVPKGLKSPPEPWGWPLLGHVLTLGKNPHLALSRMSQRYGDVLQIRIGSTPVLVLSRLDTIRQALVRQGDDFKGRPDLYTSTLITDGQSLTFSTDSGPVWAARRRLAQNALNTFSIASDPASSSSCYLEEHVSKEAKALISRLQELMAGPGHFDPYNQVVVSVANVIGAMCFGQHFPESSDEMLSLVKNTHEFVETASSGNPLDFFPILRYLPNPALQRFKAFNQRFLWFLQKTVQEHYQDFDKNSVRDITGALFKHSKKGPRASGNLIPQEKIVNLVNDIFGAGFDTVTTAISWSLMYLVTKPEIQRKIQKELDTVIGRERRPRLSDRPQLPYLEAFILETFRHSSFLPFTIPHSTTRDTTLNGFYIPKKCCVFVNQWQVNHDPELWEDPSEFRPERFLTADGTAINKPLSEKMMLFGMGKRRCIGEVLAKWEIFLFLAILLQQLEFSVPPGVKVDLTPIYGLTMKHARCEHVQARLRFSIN
Description: Inhibition of CYP1A2 (unknown origin)

Cytochrome P450 3A4 = Cytochrome P450 3A4 (Homo sapiens, UniProt P08684)
Cytochrome P450 3A4, sequence (P08684 whole entry): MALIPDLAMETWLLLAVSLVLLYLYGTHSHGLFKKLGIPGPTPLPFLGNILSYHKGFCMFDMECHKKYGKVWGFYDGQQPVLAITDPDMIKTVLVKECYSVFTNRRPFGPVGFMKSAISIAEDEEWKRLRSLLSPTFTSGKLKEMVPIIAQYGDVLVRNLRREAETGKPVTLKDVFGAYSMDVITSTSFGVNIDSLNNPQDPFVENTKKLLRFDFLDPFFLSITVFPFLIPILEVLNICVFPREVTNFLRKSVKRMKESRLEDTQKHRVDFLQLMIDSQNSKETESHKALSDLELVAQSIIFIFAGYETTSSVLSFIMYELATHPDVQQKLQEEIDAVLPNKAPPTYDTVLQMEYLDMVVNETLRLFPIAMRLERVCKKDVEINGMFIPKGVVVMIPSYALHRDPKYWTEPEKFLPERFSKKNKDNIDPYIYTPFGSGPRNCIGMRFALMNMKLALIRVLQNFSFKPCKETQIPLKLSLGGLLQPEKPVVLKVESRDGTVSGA
Description: Inhibition of CYP3A4 (unknown origin)

hERG (KCNH2) [5] = molecular target: T2, hERG (KCNH2) (Homo sapiens, UniProt Q12809); assay: Inhibition of human ERG at 30 uM relative to control
T2 sequence (Q12809 whole entry): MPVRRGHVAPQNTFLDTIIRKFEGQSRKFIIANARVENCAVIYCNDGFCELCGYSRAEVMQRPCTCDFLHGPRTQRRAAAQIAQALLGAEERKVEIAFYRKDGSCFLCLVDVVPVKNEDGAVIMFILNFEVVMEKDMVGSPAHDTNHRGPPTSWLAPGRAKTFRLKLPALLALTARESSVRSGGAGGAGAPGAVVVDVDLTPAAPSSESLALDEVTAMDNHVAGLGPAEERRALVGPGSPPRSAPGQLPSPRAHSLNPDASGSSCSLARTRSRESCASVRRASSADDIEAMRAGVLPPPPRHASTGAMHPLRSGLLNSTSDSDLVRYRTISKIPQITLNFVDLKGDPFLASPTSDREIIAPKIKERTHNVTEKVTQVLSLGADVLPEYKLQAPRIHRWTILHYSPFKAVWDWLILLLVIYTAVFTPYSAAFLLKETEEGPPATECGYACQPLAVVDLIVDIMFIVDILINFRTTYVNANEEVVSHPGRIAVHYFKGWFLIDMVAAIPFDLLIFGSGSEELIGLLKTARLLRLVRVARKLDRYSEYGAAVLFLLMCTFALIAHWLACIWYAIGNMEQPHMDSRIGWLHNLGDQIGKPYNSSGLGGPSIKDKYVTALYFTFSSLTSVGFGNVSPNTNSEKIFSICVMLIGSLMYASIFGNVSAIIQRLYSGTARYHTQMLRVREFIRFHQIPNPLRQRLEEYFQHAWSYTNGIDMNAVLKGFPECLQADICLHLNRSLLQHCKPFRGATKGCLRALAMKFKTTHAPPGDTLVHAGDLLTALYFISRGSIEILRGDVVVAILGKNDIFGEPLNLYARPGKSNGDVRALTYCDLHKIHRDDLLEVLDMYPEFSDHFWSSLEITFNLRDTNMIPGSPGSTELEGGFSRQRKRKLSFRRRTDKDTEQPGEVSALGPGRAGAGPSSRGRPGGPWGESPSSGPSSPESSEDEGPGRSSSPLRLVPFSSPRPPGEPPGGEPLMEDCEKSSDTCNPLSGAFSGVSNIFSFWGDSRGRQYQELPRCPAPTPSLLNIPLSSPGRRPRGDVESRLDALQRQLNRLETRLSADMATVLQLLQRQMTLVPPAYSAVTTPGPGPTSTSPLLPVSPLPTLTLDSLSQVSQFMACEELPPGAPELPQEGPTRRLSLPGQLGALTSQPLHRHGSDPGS

Acinetobacter baumannii = assay: Antibacterial activity against Acinetobacter baumannii ATCC 19606 assessed as reduction in bacterial growth by CLSI protocol based microdilution method; format: functional; conditions: ATCC 19606 = CIP 70.34 = JCM 6841
Neisseria gonorrhoeae [6] = assay: Antibacterial activity against Neisseria gonorrhoeae ATCC 49226 assessed as reduction in bacterial growth by CLSI protocol based microdilution method; format: functional
physchem [7] = conditions: octanol/water, pH 7.4
Description: Distribution coefficient, logD of the compound at pH 7.4

Enterococcus faecalis = assay: Antibacterial activity against Enterococcus faecalis ATCC 29212 assessed as reduction in bacterial growth by CLSI protocol based microdilution method; format: functional
Cytochrome P450 2C19 = Cytochrome P450 2C19 (Homo sapiens, UniProt P33261)
Cytochrome P450 2C19, sequence (P33261 whole entry): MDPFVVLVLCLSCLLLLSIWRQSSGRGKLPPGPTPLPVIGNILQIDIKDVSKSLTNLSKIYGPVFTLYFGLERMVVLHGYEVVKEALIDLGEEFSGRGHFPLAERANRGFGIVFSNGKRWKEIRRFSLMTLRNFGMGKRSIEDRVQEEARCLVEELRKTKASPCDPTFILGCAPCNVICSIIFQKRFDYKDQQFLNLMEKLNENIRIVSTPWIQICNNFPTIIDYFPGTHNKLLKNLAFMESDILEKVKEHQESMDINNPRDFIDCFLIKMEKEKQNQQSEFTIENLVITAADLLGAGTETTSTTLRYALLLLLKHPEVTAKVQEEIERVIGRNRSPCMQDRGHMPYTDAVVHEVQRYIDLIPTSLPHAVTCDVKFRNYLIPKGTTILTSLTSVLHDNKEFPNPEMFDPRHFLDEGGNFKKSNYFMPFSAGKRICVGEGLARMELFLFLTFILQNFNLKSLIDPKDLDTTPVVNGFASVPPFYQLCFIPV
Description: Inhibition of CYP2C19 (unknown origin)

Cytochrome P450 2C9 = Cytochrome P450 2C9 (Homo sapiens, UniProt P11712)
Cytochrome P450 2C9, sequence (P11712 whole entry): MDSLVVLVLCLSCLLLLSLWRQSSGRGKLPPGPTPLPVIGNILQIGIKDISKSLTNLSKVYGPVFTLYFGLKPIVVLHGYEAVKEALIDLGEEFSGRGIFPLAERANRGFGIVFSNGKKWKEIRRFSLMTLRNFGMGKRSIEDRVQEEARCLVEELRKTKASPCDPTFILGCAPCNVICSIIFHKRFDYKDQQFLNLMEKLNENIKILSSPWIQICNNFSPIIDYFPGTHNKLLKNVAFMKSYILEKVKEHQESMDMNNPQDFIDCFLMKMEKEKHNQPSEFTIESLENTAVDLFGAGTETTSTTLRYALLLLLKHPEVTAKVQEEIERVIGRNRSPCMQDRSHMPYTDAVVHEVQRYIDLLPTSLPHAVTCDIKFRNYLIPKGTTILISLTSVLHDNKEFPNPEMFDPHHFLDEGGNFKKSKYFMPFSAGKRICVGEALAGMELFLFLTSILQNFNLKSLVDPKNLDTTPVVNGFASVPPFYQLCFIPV
Description: Inhibition of CYP2C9 (unknown origin)

Klebsiella pneumoniae = assay: Antibacterial activity against Klebsiella pneumoniae ATCC 700603 assessed as reduction in bacterial growth by CLSI protocol based microdilution method; format: functional
Cytochrome P450 2D6 = Cytochrome P450 2D6 (Homo sapiens, UniProt P10635)
Cytochrome P450 2D6, sequence (P10635 whole entry): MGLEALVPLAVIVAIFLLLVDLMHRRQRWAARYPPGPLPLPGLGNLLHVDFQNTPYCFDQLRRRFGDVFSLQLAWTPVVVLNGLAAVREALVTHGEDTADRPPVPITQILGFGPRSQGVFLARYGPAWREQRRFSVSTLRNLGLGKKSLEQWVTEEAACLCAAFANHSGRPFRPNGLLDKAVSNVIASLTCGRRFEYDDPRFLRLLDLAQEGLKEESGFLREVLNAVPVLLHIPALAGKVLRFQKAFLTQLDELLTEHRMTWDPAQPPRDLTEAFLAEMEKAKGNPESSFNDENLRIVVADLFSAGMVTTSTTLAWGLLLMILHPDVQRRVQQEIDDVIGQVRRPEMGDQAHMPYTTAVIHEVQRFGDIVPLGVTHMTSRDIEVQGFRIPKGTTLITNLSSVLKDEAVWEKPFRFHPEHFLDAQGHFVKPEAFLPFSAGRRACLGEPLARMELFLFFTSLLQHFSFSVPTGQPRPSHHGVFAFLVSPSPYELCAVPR
Description: Inhibition of CYP2D6 (unknown origin)

Neisseria gonorrhoeae [8] = assay: Antibacterial activity against fluoroquinolone-resistant Neisseria gonorrhoeae WHO L harboring multiple point mutations at DNA gyrase and topoisomerase IV and porB1b mutation assessed as reduction in bacterial growth by CLSI protocol based microdilution method; format: functional
Escherichia coli = assay: Antibacterial activity against Escherichia coli ATCC 25922 assessed as reduction in bacterial growth by CLSI protocol based microdilution method; format: functional
in vitro = conditions: human, plasma
Description: Protein binding in human plasma assessed as free fraction

Pseudomonas aeruginosa = assay: Antibacterial activity against Pseudomonas aeruginosa PAO1 assessed as reduction in bacterial growth by CLSI protocol based microdilution method; format: functional
Staphylococcus aureus = assay: Antibacterial activity against Staphylococcus aureus ATCC 29213 assessed as reduction in bacterial growth by CLSI protocol based microdilution method; format: functional
hERG (KCNH2) [9] = molecular target: T2, hERG (KCNH2); assay: Inhibition of human ERG at 100 uM relative to control
[10] = molecular target: Voltage-gated inwardly rectifying potassium channel KCNH2 (Homo sapiens, UniProt Q12809); assay: Inhibition of human ERG up to 185 uM
Voltage-gated inwardly rectifying potassium channel KCNH2, sequence (Q12809 whole entry): as the sequence (Q12809 whole entry) above

Neisseria gonorrhoeae [11] = assay: Antibacterial activity against Neisseria gonorrhoeae assessed as reduction in bacterial growth; format: functional
[12] = Oral bioavailability in human at 450 mg measured every 12 hrs; format: ADME, organism-based; conditions: in vivo
[13] = Oral bioavailability in human at 400 mg measured every 12 hrs; format: ADME, organism-based; conditions: in vivo

Structure (SMILES) | microsomal CLint [1] | pKa [2] | solubility kinetic (physchem [3]) | hepatocyte CLint [4] | IC50 (Cytochrome P450 1A2) | IC50 (Cytochrome P450 3A4) | MIC (Acinetobacter baumannii) | MIC (Neisseria gonorrhoeae [6]) | logD (physchem [7]) | MIC (Enterococcus faecalis) | IC50 (Cytochrome P450 2C19) | IC50 (Cytochrome P450 2C9) | MIC (Klebsiella pneumoniae) | IC50 (Cytochrome P450 2D6) | MIC (Neisseria gonorrhoeae [8]) | MIC (Escherichia coli) | fraction unbound (in vitro) | MIC (Pseudomonas aeruginosa) | MIC (Staphylococcus aureus) | inhibition at 100 µM (hERG (KCNH2) [9]) | also measured
Nc1nc(-n2cc(C(=O)O)c(=O)c3cc(F)c(N4CC(N)C4)c(Cl)c32)c(F)cc1F | < 5 µL/min/mg | 5.33 | 3.6 µM (≈ 1.58 µg/mL) | 3 µL/min/1e6 cells | > 50 µM | 13.6 µM | 2 µg/mL (≈ 4.55 µM) | 0.007 µg/mL (≈ 0.0159 µM) | -0.3 | 0.12 µg/mL (≈ 0.273 µM) | > 50 µM | 12.7 µM | 0.25 µg/mL (≈ 0.568 µM) | > 50 µM | 0.06 µg/mL (≈ 0.136 µM) | 0.001 µg/mL (≈ 0.00227 µM) | 0.297 | 0.12 µg/mL (≈ 0.273 µM) | 0.003 µg/mL (≈ 0.00682 µM) |  | inhibition at 30 µM (hERG (KCNH2) [5]): 6%
Nc1nc(-n2cc(C(=O)O)c(=O)c3cc(F)c([C@H]4C[C@H](O)C4)c(Cl)c32)c(F)cc1F | < 5 µL/min/mg | 5.04 | 59.3 µM (≈ 26.1 µg/mL) | 6.8 µL/min/1e6 cells | > 50 µM | > 50 µM | 64 µg/mL (≈ 146 µM) | 0.01 µg/mL (≈ 0.0227 µM) | 0.3 | 0.5 µg/mL (≈ 1.14 µM) | > 50 µM | 41.7 µM | 8 µg/mL (≈ 18.2 µM) | > 50 µM | 0.12 µg/mL (≈ 0.273 µM) | 0.12 µg/mL (≈ 0.273 µM) | 0.105 | 2 µg/mL (≈ 4.55 µM) | 0.03 µg/mL (≈ 0.0682 µM) | 18% | 
Nc1nc(-n2cc(C(=O)O)c(=O)c3cc(F)c([C@H]4C[C@@H](O)C4)c(Cl)c32)c(F)cc1F | < 5 µL/min/mg | 4.96 | 44.8 µM (≈ 19.7 µg/mL) | 9.2 µL/min/1e6 cells | > 50 µM | 24.8 µM | 16 µg/mL (≈ 36.4 µM) | 0.06 µg/mL (≈ 0.136 µM) | 0.3 | 0.25 µg/mL (≈ 0.568 µM) | > 50 µM | > 50 µM | 4 µg/mL (≈ 9.1 µM) | > 50 µM | 0.12 µg/mL (≈ 0.273 µM) | 0.12 µg/mL (≈ 0.273 µM) | 0.124 | 4 µg/mL (≈ 9.1 µM) | 0.03 µg/mL (≈ 0.0682 µM) | 15% | 
Nc1nc(-n2cc(C(=O)O)c(=O)c3cc(F)c(N4CC(O)C4)c(Cl)c32)c(F)cc1F [DELAFLOXACIN] | < 5 µL/min/mg | 5.47 | 58.1 µM (≈ 25.6 µg/mL) | 3 µL/min/1e6 cells | > 50 µM |  | 8 µg/mL (≈ 18.2 µM) | 0.06 µg/mL (≈ 0.136 µM) | 0.7 | 0.03 µg/mL (≈ 0.0681 µM) | > 50 µM | > 50 µM | 0.25 µg/mL (≈ 0.567 µM) | > 50 µM | 0.03 µg/mL (≈ 0.0681 µM) | 0.01 µg/mL (≈ 0.0227 µM) | 0.149 | 1 µg/mL (≈ 2.27 µM) | 0.003 µg/mL (≈ 0.00681 µM) | 19% | inhibition (INH) [10]: Not Active; MIC (Neisseria gonorrhoeae [11]): ≥ 0.008 µg/mL; MIC90 (Neisseria gonorrhoeae [11]): 0.125 µg/mL (≈ 0.284 µM); bioavailability [12]: 59%
COc1c(N2C[C@@H]3CCCN[C@@H]3C2)c(F)cc2c(=O)c(C(=O)O)cn(C3CC3)c12 [MOXIFLOXACIN] |  |  |  |  |  |  |  |  |  |  |  |  |  |  |  |  |  |  |  |  | bioavailability [13]: 92%

— ChEMBL document CHEMBL4725368, “Novel C-7 carbon substituted fourth generation fluoroquinolones targeting N. Gonorrhoeae infections” (Bioorg Med Chem Lett, 2020)
